Columns and labels:
BRD4-BD1 = BRD4-BD1 (Homo sapiens (Human), UniProt O60885); test: BRD4 AlphaScreen assay, BRD4-BD1; format: binding; conditions: H4Ac4 peptide, 75 min, room temperature, read-out: BRD4 BD-1 enzyme IC50
Description: (§1) BRD4-BD1 and BRD4-BD2 assays were conducted in white 384-well polystyrene plate in a final volume of 20 μL for BD1 and 40 μL for BD2. Inhibitors were first serially diluted in DMSO and added to the plate wells before the addition of other reaction components. […] After plate sealing, the plate was incubated in the dark at room temperature for 75 min. before reading on a PHERAstar FS plate reader (BMG Labtech). IC50 determination was performed by fitting the curve of percent control activity versus the log of the inhibitor concentration using the GraphPad Prism 5.0 software.

BRD4-BD2 = BRD4-BD2 (Homo sapiens (Human), UniProt O60885); test: BRD4 AlphaScreen assay, BRD4-BD2; format: binding; conditions: H4Ac4 peptide, 75 min, room temperature, read-out: BRD4 BD-2 enzyme IC50
Description: as §1

KMS.12.BM cells = test: KMS.12.BM cell viability assay (Cell Titer-GLO, ATP quantitation); format: cell-based; conditions: Homo sapiens, 72 h, 3 days, concentration required for 50% cell death, read-out: KMS cellular IC50
Description: KMS.12.BM cell line (human myeloma) was purchased from JCRB (Osaka, Japan) and maintained in RPMI with 10% FBS culture medium. To measure the cytotoxic activity of the compounds through ATP quantitation, the KMS.12.BM cells are plated in the RPMI culture medium at 5000 cells/well/per 100 μL into a 96-well polystyrene clear black tissue culture plate (Greiner-bio-one through VWR, NJ), in the presence or absence of a concentration range of test compounds. After 3 days, […] Cell Titer-GLO Luminescent (Promega, Madison, Wis.) cell culture agent is added to each well for 10 minutes at room temperature to stabilize the luminescent signal. This determines the number of viable cells in culture based on quantitation of the ATP present, which signals the presence of metabolically active cells. Luminescence is measured with the Top Count 384 (Packard Bioscience through Perkin Elmer, Boston, Mass.). Compound inhibition is determined relative to cells cultured with no drug and the IC50 is reported as the compound concentration required for 50% cell death. IC50 data for the Examples is presented in Table 9 as determined by Assay B1.

C-myc = test: KMS.12.BM C-myc ELISA assay; format: cell-based; conditions: Homo sapiens; KMS.12.BM cells, 2 hours, concentration required for 50% C-myc inhibition
Description: KMS.12.BM cell line (human myeloma) was purchased from JCRB (Osaka, Japan) and maintained in RPMI with 10% FBS culture medium. To measure the C-myc inhibitory activity of the compounds, the KMS.12.BM cells are plated in the RPMI culture medium at 75000 cells/well/per 200 μL into a 96-well flat bottom polystyrene tissue culture plate (Corning through VWR, NJ), in the presence or absence of a concentration range of test compounds. After 2 hours, cell are pelleted and lysed with Cell Extraction Buffer (BioSource, Carlsbad, Calif.) in the presence of protease inhibitors (Life Technologies, Grand Island, N.Y. and Sigma, St Louis, Mo.). Clarified lyses are tested in a C-myc commercial ELISA (Life Technologies, Grand Island, N.Y.). Compound inhibition is determined relative to cells cultured with no drug and the IC50 is reported as the compound concentration required for 50% C-myc inhibition. IC50 data for the Examples is presented in Table 10 as determined by Assay C1.

Row | SMILES | IC50 (BRD4-BD1) [nM] | IC50 (BRD4-BD2) [nM] | IC50 (C-myc) [nM] | IC50 (KMS.12.BM cells) [nM]
1 | Cn1cc(-c2ccc3c([nH]c(=O)n3C)c2OCc2ccccc2)c2cc[nH]c2c1=O [Example 27, 4-(Benzyloxy)-1-methyl-5-(6-methyl-7-oxo-6,7-dihydro-1H-pyrrolo[2,3-c]pyridin-4-yl)-1,3-dihydro-2H-benzimidazol-2-one] | 100 to 1000 | < 100 | ≤ 1000 | ≤ 1000
2 | Cn1cc(-c2ccc3c([nH]c(=O)n3C)c2OCc2ccc(F)cc2F)c2cc[nH]c2c1=O [Example 28, 4-[(2,4-Difluorobenzyl)oxy]-1-methyl-5-(6-methyl-7-oxo-6,7-dihydro-1H-pyrrolo[2,3-c]pyridin-4-yl)-1,3-dihydro-2H-benzimidazol-2-one] | 100 to 1000 | < 100 | 1000 to 10000 | ≤ 1000
3 | Cn1cc(-c2ccc3c([nH]c(=O)n3C)c2OC2CCOCC2)c2cc[nH]c2c1=O [Example 29, 1-Methyl-5-(6-methyl-7-oxo-6,7-dihydro-1H-pyrrolo[2,3-c]pyridin-4-yl)-4-(tetrahydro-2H-pyran-4-yloxy)-1,3-dihydro-2H-benzimidazol-2-one] | < 100 | < 100 | ≤ 1000 | ≤ 1000
4 | Cn1cc(-c2ccc3ncn(CC(=O)N4CCOCC4)c3c2Oc2ccc(F)cc2F)c2cc[nH]c2c1=O [Example 30, 4-[7-(2,4-Difluorophenoxy)-1-(2-morpholin-4-yl-2-oxoethyl)-1H-benzimidazol-6-yl]-6-methyl-1,6-dihydro-7H-pyrrolo[2,3-c]pyridin-7-one] | < 100 | < 100 | ≤ 1000 | ≤ 1000
5 | Cn1cc(-c2ccc3c(ncn3CC(=O)N3CCOCC3)c2Oc2ccc(F)cc2F)c2cc[nH]c2c1=O [Example 31, 4-[4-(2,4-difluorophenoxy)-1-(2-morpholin-4-yl-2-oxoethyl)-1H-benzimidazol-5-yl]-6-methyl-1,6-dihydro-7H-pyrrolo[2,3-c]pyridin-7-one] | < 100 | < 100 | ≤ 1000 | ≤ 1000
6 | COc1c(-c2cn(C)c(=O)c3[nH]ccc23)ccc2c1[nH]c(=O)n2C [Example 32, 4-Methoxy-1-methyl-5-(6-methyl-7-oxo-6,7-dihydro-1H-pyrrolo[2,3-c]pyridin-4-yl)-1,3-dihydro-2H-benzimidazol-2-one] | 100 to 1000 | < 100 | ≤ 1000 | ≤ 1000
7 | CN(C)C(=O)Cn1cnc2c(Oc3ccc(F)cc3F)c(-c3cn(C)c(=O)c4[nH]ccc34)ccc21 [Example 34, 2-[4-(2,4-difluorophenoxy)-5-(6-methyl-7-oxo-6,7-dihydro-1H-pyrrolo[2,3-c]pyridin-4-yl)-1H-benzimidazol-1-yl]-N,N-dimethylacetamide] | < 100 | < 100 | ≤ 1000 | ≤ 1000
8 | CNC(=O)Cn1cnc2c(Oc3ccc(F)cc3F)c(-c3cn(C)c(=O)c4[nH]ccc34)ccc21 [Example 36, 2-[4-(2,4-difluorophenoxy)-5-(6-methyl-7-oxo-6,7-dihydro-1H-pyrrolo[2,3-c]pyridin-4-yl)-1H-benzimidazol-1-yl]-N-methylacetamide] | < 100 | < 100 | ≤ 1000 | ≤ 1000
9 | Cn1cc(-c2ccc3c([nH]c(=O)n3C)c2OCC2CCC2)c2cc[nH]c2c1=O [Example 37, 4-(Cyclobutylmethoxy)-1-methyl-5-(6-methyl-7-oxo-6,7-dihydro-1H-pyrrolo[2,3-c]pyridin-4-yl)-1,3-dihydro-2H-benzimidazol-2-one] | < 100 | < 100 | ≤ 1000 | ≤ 1000
10 | Cn1cc(-c2ccc3c([nH]c(=O)n3C)c2Oc2ccccc2)c2cc[nH]c2c1=O [Example 38, 1-Methyl-5-(6-methyl-7-oxo-6,7-dihydro-1H-pyrrolo[2,3-c]pyridin-4-yl)-4-phenoxy-1,3-dihydro-2H-benzimidazol-2-one] | < 100 | < 100 | ≤ 1000 | ≤ 1000

Further lines, with some results ahead:

Row | IC50 (BRD4-BD1) [nM] | IC50 (BRD4-BD2) [nM] | IC50 (C-myc) [nM] | SMILES | IC50 (KMS.12.BM cells) [nM]
11 | < 100 | < 100 | ≤ 1000 | Cn1cc(-c2ccc3[nH]c(=O)[nH]c3c2Oc2ccc(F)cc2F)c2cn[nH]c2c1=O [Example 16, 4-[4-(2,4-Difluorophenoxy)-2-oxo-2,3-dihydro-1H-benzimidazol-5-yl]-6-methyl-1,6-dihydro-7H-pyrazolo[3,4-c]pyridin-7-one] | ≤ 1000
12 | < 100 | < 100 | ≤ 1000 | Cn1cc(-c2ccc3c(ncn3CCN3CCOCC3)c2Oc2ccc(F)cc2F)c2cn[nH]c2c1=O [Example 17, 4-[4-(2,4-Difluorophenoxy)-1-(2-morpholin-4-ylethyl)-1H-benzimidazol-5-yl]-6-methyl-1,6-dihydro-7H-pyrazolo[3,4-c]pyridin-7-one] | ≤ 1000
13 | < 100 | < 100 | ≤ 1000 | Cn1cc(-c2ccc3c(ncn3C)c2Oc2ccc(F)cc2F)c2cn[nH]c2c1=O [Example 18, 4-[4-(2,4-Difluorophenoxy)-1-methyl-1H-benzimidazol-5-yl]-6-methyl-1,6-dihydro-7H-pyrazolo[3,4-c]pyridin-7-one] | ≤ 1000
14 | < 100 | < 100 | ≤ 1000 | Cc1nc2c(Oc3ccc(F)cc3F)c(-c3cn(C)c(=O)c4[nH]ncc34)ccc2n1C [Example 19, 4-[4-(2,4-Difluorophenoxy)-1,2-dimethyl-1H-benzimidazol-5-yl]-6-methyl-1,6-dihydro-7H-pyrazolo[3,4-c]pyridin-7-one] | ≤ 1000
15 | < 100 | < 100 | ≤ 1000 | Cn1cc(-c2ccc3c(nnn3C)c2Oc2ccc(F)cc2F)c2cn[nH]c2c1=O [Example 20, 4-[4-(2,4-Difluorophenoxy)-1-methyl-1H-1,2,3-benzotriazol-5-yl]-6-methyl-1,6-dihydro-7H-pyrazolo[3,4-c]pyridin-7-one] | ≤ 1000
16 | < 100 | < 100 | ≤ 1000 | Cn1cc(-c2ccc3c([nH]c(=O)n3C)c2Oc2ccc(F)cc2F)c2cn[nH]c2c1=O [Example 21, 4-[4-(2,4-Difluorophenoxy)-1-methyl-2-oxo-2,3-dihydro-1H-benzimidazol-5-yl]-6-methyl-1,6-dihydro-7H-pyrazolo[3,4-c]pyridin-7-one] | ≤ 1000
17 | < 100 | < 100 | ≤ 1000 | Cn1cc(-c2ccc3[nH]c(=O)[nH]c3c2Oc2ccccc2)c2cc[nH]c2c1=O [Example 22, 5-(6-Methyl-7-oxo-6,7-dihydro-1H-pyrrolo[2,3-c]pyridin-4-yl)-4-phenoxy-1,3-dihydro-2H-benzimidazol-2-one] | ≤ 1000
18 | < 100 | < 100 | ≤ 1000 | Cn1cc(-c2ccc3[nH]c(=O)[nH]c3c2Oc2ccc(F)cc2)c2cc[nH]c2c1=O [Example 24, 4-(4-Fluorophenoxy)-5-(6-methyl-7-oxo-6,7-dihydro-1H-pyrrolo[2,3-c]pyridin-4-yl)-1,3-dihydro-2H-benzimidazol-2-one] | ≤ 1000
19 | < 100 | < 100 | ≤ 1000 | Cn1cc(-c2ccc3[nH]c(=O)[nH]c3c2Oc2cccc(F)c2)c2cc[nH]c2c1=O [Example 25, 4-(3-Fluorophenoxy)-5-(6-methyl-7-oxo-6,7-dihydro-1H-pyrrolo[2,3-c]pyridin-4-yl)-1,3-dihydro-2H-benzimidazol-2-one] | ≤ 1000
20 | < 100 | < 100 | ≤ 1000 | Cn1cc(-c2ccc3[nH]c(=O)[nH]c3c2OC2CCCOC2)c2cc[nH]c2c1=O (centres unmarked) [Example 26, 5-(6-Methyl-7-oxo-6,7-dihydro-1H-pyrrolo[2,3-c]pyridin-4-yl)-4-(tetrahydro-2H-pyran-3-yloxy)-1,3-dihydro-2H-benzimidazol-2-one] | ≤ 1000

Reference: US9918990B2, “Substituted pyrrolo[2,3-c]pyridines and pyrazolo[3,4-c]pyridines as BET protein inhibitors” (Incyte Corporation, priority 2013, dated 2018)
